{
  "source": "paper PMC7111419",
  "about": "(European Journal of Medicinal Chemistry, 2019)",
  "key": {"bovine liver βGLU": {"system": "bovine liver βGLU", "conditions": "cited from earlier work"}, "rat liver βGLU": {"system": "rat liver βGLU", "conditions": "cited from earlier work"}, "E. coli βGLU [1]": {"system": "E. coli βGLU", "conditions": "cited from earlier work"}, "male Wistar rats": {"system": "male Wistar rats", "conditions": "cited from earlier work"}, "3T3 cells": {"system": "3T3 cells", "conditions": "cited from earlier work"}, "male albino Wistar rats": {"system": "male albino Wistar rats", "conditions": "7.5 mg/kg body weight/day intragastric, 7 days; cited from earlier work"}, "Wistar rats": {"system": "Wistar rats", "conditions": "0.8 μg inhibitor, 3 mg/kg diclofenac; cited from earlier work"}, "human liver-derived βGLU": {"system": "human liver-derived βGLU", "conditions": "1 mM; cited from earlier work"}, "SENCAR mice": {"system": "SENCAR mice", "conditions": "cited from earlier work"}, "βGLU in breast milk": {"system": "βGLU in breast milk", "conditions": "10 μM; cited from earlier work"}, "βGLU [2]": {"system": "βGLU", "conditions": "cited from earlier work"}, "female Wistar rats": {"system": "female Wistar rats", "conditions": "i.p. pre or cotreatment, 3 mg/ml, 10 mg/ml or 10 mg/0.5 ml, 6 days; cited from earlier work"}, "E. coli βGLU [3]": {"system": "E. coli βGLU", "experiment": "E. coli βGLU inhibition", "assay_type": "biochemical"}, "male ICR mice": {"system": "male ICR mice", "conditions": "cited from earlier work"}, "bacterial βGLU [4]": {"system": "bacterial βGLU", "conditions": "cited from earlier work"}, "E. coli cells": {"system": "E. coli cells", "conditions": "100 μM; cited from earlier work"}, "[5]": {"conditions": "cited from earlier work"}, "BALB/cJ mice": {"system": "BALB/cJ mice", "conditions": "10 μg twice daily with 50 mg/kg CPT-11 once daily; cited from earlier work"}, "rat neutrophils": {"system": "rat neutrophils", "conditions": "read-out: IC50, βGLU release; cited from earlier work"}, "salivary βGLU": {"system": "salivary βGLU", "conditions": "16 subjects with aggressive periodontitis; cited from earlier work"}, "male Fischer rats": {"system": "male Fischer rats", "conditions": "cited from earlier work; for reduction of aberrant crypt foci formation: 5 weeks, vs azoxymethane-controls"}, "newborns": {"system": "newborns", "conditions": "cited from earlier work"}, "βGLU [6]": {"system": "βGLU", "assay_type": "biochemical"}, "neutrophil-derived βGLU": {"system": "neutrophil-derived βGLU", "conditions": "1 μM; cited from earlier work"}, "bacterial βGLU [7]": {"system": "bacterial βGLU", "assay_type": "biochemical"}},
  "note": "Read-outs that look alike come from different tables or passages of the source.",
  "data": [
    {"molecule": "O=C(O)[C@H]1NC[C@H](O)[C@@H](O)[C@@H]1O", "note": "[Compound 94]", "values": [
      {"measurement": "selectivity for bovine liver βGLU", "setting": "bovine liver βGLU", "result": 3, "unit": "fold"}
    ]},
    {"molecule": "CC1(C)[C@@H](O)CC[C@]2(C)[C@H]3C(=O)C=C4[C@@H]5C[C@@](C)(C(=O)O)CC[C@]5(C)CC[C@@]4(C)[C@]3(C)CC[C@@H]12", "note": "[Compound 44, 18β-glycyrrhetinic acid]", "values": [
      {"measurement": "IC50", "setting": "rat liver βGLU", "result": 42.5, "unit": "µM"},
      {"measurement": "IC50", "setting": "E. coli βGLU [1]", "result": 510, "unit": "µM"},
      {"measurement": "AST, ALT and LDH levels compared to CCl4-controls", "setting": "male Wistar rats; 100 mg/kg intraperitoneal", "result": "significant reduction"}
    ]},
    {"molecule": "Oc1cccc(C(c2c[nH]c3cc(Br)ccc23)c2c[nH]c3ccc(Br)cc23)c1O", "note": "(stereo not drawn) [Compound 133]", "values": [
      {"measurement": "cytotoxicity", "setting": "3T3 cells", "result": "moderate cytotoxicity"}
    ]},
    {"molecule": "NC[C@@H]1C[C@@H]2[C@H](O)[C@@H](O)[C@H](O)[C@@H](C(=O)O)N2C(=O)O1", "note": "[Compound 71]", "values": [
      {"measurement": "IC50", "setting": "bovine liver βGLU", "result": 218, "unit": "µM"}
    ]},
    {"molecule": "Cc1ccc(C(C)C)c(O)c1", "note": "[Compound 54, thymol]", "values": [
      {"measurement": "activities of lysosomal enzymes (βGLU, β-galactosidase, cathepsin B and D) in serum and heart", "setting": "male albino Wistar rats", "result": "potently inhibited to near-normal"}
    ]},
    {"molecule": "COc1ccc(NC(=S)N(CCO)Cc2cc3cc(C)cc(C)c3[nH]c2=O)cc1", "note": "[Compound 152]", "values": [
      {"measurement": "fold increased potency vs glucaro-δ-lactam 61", "setting": "E. coli βGLU [1]", "result": 100, "unit": "fold"},
      {"measurement": "fold reduction in severity of diclofenac-induced anastomotic leakage", "setting": "Wistar rats", "result": 2, "unit": "fold"}
    ]},
    {"molecule": "O=C(O)[C@@H](O)[C@H]1OC(=O)[C@H](O)[C@H]1O", "note": "[Compound 5, D-saccharic acid-1,4-lactone]", "values": [
      {"measurement": "inhibition of hydrolytic action on quercetin glucuronides", "setting": "human liver-derived βGLU", "result": "completely inhibited"},
      {"measurement": "reduction of DMBA-induced oxidative DNA damage and mutations in codon 61 of Ha-ras gene", "setting": "SENCAR mice", "result": "up to 78%"},
      {"measurement": "inhibition of βGLU in breast milk", "setting": "βGLU in breast milk", "result": "over 90%"},
      {"measurement": "IC50", "setting": "βGLU [2]; value recurrent in literature", "result": "~40", "unit": "µM"},
      {"measurement": "severity of CPT-11 induced small-intestine mucosal damage", "setting": "female Wistar rats", "result": "reduced the severity"}
    ]},
    {"molecule": "O=C(O)[C@@H]1[C@@H](O)[C@H](O)[C@@]2(O)CC[C@@H]1N2", "note": "[Compound 77, uronic-noeurostegine]", "values": [
      {"measurement": "Ki", "setting": "E. coli βGLU [1]", "result": 0.06, "unit": "µM"},
      {"measurement": "selectivity for E. coli βGLU over bovine liver βGLU", "setting": "E. coli βGLU [3]", "result": 38, "unit": "fold"}
    ]},
    {"molecule": "COc1c(O[C@@H]2O[C@H](CO)[C@@H](O)[C@H](O)[C@H]2O)cc2occ(-c3ccc(O)cc3)c(=O)c2c1O", "note": "[Compound 43, tectoridin]", "values": [
      {"measurement": "hepatoprotection", "setting": "male ICR mice; 100 mg/kg intraperitoneal", "result": "failure to provide desired hepatoprotection"},
      {"measurement": "serum AST, ALT and LDH levels relative to CCl4-treated controls", "setting": "male ICR mice; 100 mg/kg oral", "result": "significantly lowering"},
      {"measurement": "presence in serum", "setting": "male ICR mice; 250 mg/kg oral, only tectorigenin detected", "result": "absence in the serum"}
    ]},
    {"molecule": "O=S(=O)(NCc1cccc(Cl)c1)c1cc(Cl)c(Oc2cccc(N3CCNCC3)c2)s1", "note": "[Compound 193]", "values": [
      {"measurement": "IC50", "setting": "bacterial βGLU [4]; US 9617.239 B2", "result": "equipotent"},
      {"measurement": "IC50", "setting": "bacterial βGLU [4]; US 9617.239 B2, listed as C00012", "result": 0.02, "unit": "µM"}
    ]},
    {"molecule": "O=C(Cn1c(-c2ccccn2)nc2ccccc21)c1ccc(Cl)cc1", "note": "[Compound 4-Cl]", "values": [
      {"measurement": "cytotoxicity to E. coli cells", "setting": "E. coli cells", "result": "cytotoxicity"},
      {"measurement": "IC50", "setting": "βGLU [2]", "result": 32.1, "unit": "µM"}
    ]},
    {"molecule": "CCOc1ccc(NC(=S)N(CCO)Cc2cc3cc(C)cc(C)c3[nH]c2=O)cc1", "note": "[Compound 151]", "values": [
      {"measurement": "half-life", "setting": "[5]", "result": "< 1", "unit": "h"},
      {"measurement": "CPT-11 induced diarrhoea", "setting": "BALB/cJ mice", "result": "alleviated Irinotecan (CPT-11) induced diarrhoea"}
    ]},
    {"molecule": "C[C@@H]1C(=O)O[C@H]2[C@H](O)[C@@]34[C@H]5C[C@@H](C(C)(C)C)[C@]36[C@@H](OC(=O)[C@@H]6O)O[C@@]4(C(=O)O5)[C@@]12O", "note": "[ginkgolide B]", "values": [
      {"measurement": "IC50", "setting": "rat neutrophils", "result": 6.63, "unit": "µM"}
    ]},
    {"molecule": "doxycycline hyclate", "values": [
      {"measurement": "effect on salivary βGLU activity", "setting": "salivary βGLU", "result": "inefficient"}
    ]},
    {"molecule": "CC(=O)O[C@@H]1C(=O)O[C@H]2[C@@H]1OC(=O)[C@@H]2OC(C)=O", "note": "[Compound 6, 2,5-di-O-acetyl-D-glucaro-1,4:6,3-dilactone]", "values": [
      {"measurement": "reduction of aberrant crypt foci formation", "setting": "male Fischer rats; 0.5% in diet", "result": "over 48.6%"},
      {"measurement": "reduction of aberrant crypt foci formation", "setting": "male Fischer rats; 2% in diet", "result": "> 55.3", "unit": "%"},
      {"measurement": "inhibition of colon carcinogenesis", "setting": "male Fischer rats; post-initiation phase, 32 weeks treatment (D-GL: 2%)", "result": "over 70%"}
    ]},
    {"molecule": "tectorigenin [Compound 42]", "values": [
      {"measurement": "IC50", "setting": "βGLU [2]", "result": 300, "unit": "µg/mL"},
      {"measurement": "serum AST, ALT and LDH levels relative to CCl4-treated controls", "setting": "male ICR mice; 50 mg/kg intraperitoneal pre-treatment", "result": "significantly lowering"}
    ]},
    {"molecule": "CC1(C)[C@@H](O[C@H]2O[C@H](C(=O)O)[C@@H](O)[C@H](O)[C@H]2O[C@@H]2O[C@H](C(=O)O)[C@@H](O)[C@H](O)[C@H]2O)CC[C@]2(C)[C@H]3C(=O)C=C4[C@@H]5C[C@@](C)(C(=O)O)CC[C@]5(C)CC[C@@]4(C)[C@]3(C)CC[C@@H]12", "note": "[Compound 45, glycyrrhizinic acid]", "values": [
      {"measurement": "AST, ALT and LDH levels compared to CCl4-controls", "setting": "male Wistar rats; 100 mg/kg oral", "result": "significant reduction"},
      {"measurement": "hepatoprotection", "setting": "male Wistar rats; intraperitoneal administration", "result": "did not provide hepatoprotection"}
    ]},
    {"molecule": "N[C@@H](CC(=O)O)C(=O)O", "note": "[Compound 10, L-aspartic acid]", "values": [
      {"measurement": "transcutaneous bilirubin levels, lower than control", "setting": "newborns; 6 doses, 180 mg/5 ml of water/day, first week of life", "result": 25, "unit": "%"},
      {"measurement": "adverse effects", "setting": "newborns", "result": "no adverse effects"},
      {"measurement": "fold more potent than D-isomer", "setting": "βGLU [6]", "result": 100, "unit": "fold"},
      {"measurement": "inhibition of βGLU", "setting": "βGLU [2]; 100 μM", "result": "~86", "unit": "%"}
    ]},
    {"molecule": "O=c1c(O)c(-c2ccc(O)cc2)oc2cc(O)cc(O)c12", "note": "[Compound 19, Kaempferol]", "values": [
      {"measurement": "IC50", "setting": "bacterial βGLU [4]", "result": 36.5, "unit": "µM"}
    ]},
    {"molecule": "O=C(O)c1ccccc1O", "note": "[salicylic acid, reference compound]", "values": [
      {"measurement": "inhibition", "setting": "neutrophil-derived βGLU", "result": 25, "unit": "%"},
      {"measurement": "inhibition", "setting": "βGLU [2]; 1 mM", "result": 24.77, "unit": "%"}
    ]},
    {"molecule": "NC[C@@H]1OC(=O)N2[C@H]1[C@H](O)[C@@H](O)[C@H](O)[C@H]2C(=O)O", "note": "[Compound 73]", "values": [
      {"measurement": "IC50", "setting": "bovine liver βGLU", "result": 259, "unit": "µM"}
    ]},
    {"molecule": "O=C(/C=C/c1ccc(O)cc1)O[C@@H]1O[C@H](Oc2cc(O)c3c(=O)cc(-c4ccc(O)cc4)oc3c2)[C@@H](O)[C@H](O)[C@H]1O", "note": "[Compound 148]", "values": [
      {"measurement": "fold potency vs D-SAL", "setting": "bacterial βGLU [7]", "result": 10, "unit": "fold"},
      {"measurement": "cytotoxicity", "setting": "3T3 cells", "result": "totally non-cytotoxic"}
    ]},
    {"molecule": "COc1ccc(-c2nc(O)c3ccccc3n2)cc1OC", "note": "[Compound 160]", "values": [
      {"measurement": "fold potency vs D-SAL", "setting": "E. coli βGLU [3]", "result": 76, "unit": "fold"}
    ]}
  ]
}
